Entries after “also recorded” stand apart in the source; their conditions may differ.
Experiments:
CFPAC-1 = assay: Sensitivity of pancreatic adenocarcinoma cells to drug treatment (cell proliferation, apoptosis); type: cell-based, human; conditions: CFPAC-1 (CFPAC); vs untreated controls; FIG. 3B, 5
Method: (§1) The culture media was changed every 48 hrs.
(§2) Cells were pulsed with 10 μM BrdU for two hours and then harvested and fixed. BrdU incorporation was detected with a fluorescein isothiocyanate conjugated anti-BrdU antibody (BD Biosciences) and total DNA was stained with 7-AAD (BD Biosciences). FACS analysis was performed according to the BD Biosciences BrdU flow kit manual. Cells in S-phase were defined as the BrdU-positive cell population with a DNA content between 2N and 4N. According to the manual, apoptotic cells were defined as a subpopulation of G0/G1 cells with DNA content lower than the diploid amount (<2N).

BxPC3 = assay: as above; type: cell-based, human
Method: (§3) Human pancreatic adenocarcinoma cell lines HPAC, SW1990, Mpanc-96, SU86.86, PL45, Panc10.05 Panc2.03 and Panc8.13 were obtained from ATCC; cell lines MiaPaCa2, Panc1, CFPAC-1, HPAFII, Capan-2, AsPC1, Hs766T and BxPC3 were a gift from Schering Plough; cell lines COLO357, L3.3, L3.6 pl and L3.6 sl were a gift from I. Fidler; cell lines Panc3.27, Panc4.21, Panc5.04, Panc2.13, Panc1.28 and Panc6.03 were a gift from E. Jaffee. BxPC3 and the Panc cell lines were grown in RPMI medium (Gibco) supplemented with 10% FBS, L-glutamine and penicillin/streptomycin; medium for the Panc cells was also supplemented with insulin-transferrin-selenium (Gibco). The CFPAC-1, Panc1, AsPC1, Hs766T, L3.6sl and L3.6pl were grown in DMEM without phenol red (CellGro), supplemented with 10% FBS. Derivation and culture of PDC cells was as described (Schreiber et al., Gastroenterology, 127:250-260, 2004).
(§4) The small chemical inhibitors were used at the following final concentrations: up to 250 μM for sulindac (Sigma), up to 300 μM for sulindac sulfone (Calbiochem or ICN), NS-398 up to 25 μM (Calbiochem), sodium salicylate up to 100 μM (Calbiochem). […] To test for drug sensitivity, the cells were plated in control medium or in medium containing the drug of interest for 2 to 5 days. The culture media was changed every 48 hrs. The images showing cell morphology were taken with a Nikon inverted microscope.
as §2

L3.6sl = assay: as above; type: cell-based, human
Method: as §3, §4, §2

Panc4.21 = assay: as above; type: cell-based, human
Method: as §3, §4, §2

L3.6pl = assay: Sensitivity of pancreatic adenocarcinoma cells to drug treatment (cell proliferation); type: cell-based, human; conditions: reduction in cell proliferation
Method: as §1, §2

Panc2.03 = assay: as above; type: cell-based, human; conditions: reduction in cell proliferation
Method: as §1, §2

Panc3.27 = assay: as above; type: cell-based, human; conditions: reduction in cell proliferation
Method: as §1, §2

Panc6.03 = assay: as above; type: cell-based, human; conditions: reduction in cell proliferation
Method: as §1, §2

[1] = system: Hedgehog signaling (GliBS-luc reporter); assay: GliBS-luciferase reporter assay; type: cell-based, human; conditions: CFPAC-1, BxPC3, L3.6sl, Panc4.21; cyclopamine 10 μM, sulindac 250 μM; FIG. 4B
Method: The cell lines were plated the day prior to transfection at a density of 8×10^4 cells/well in a 24-well plate. The luciferase reporter constructs used included: Top-Flash and Fop-Flash containing multimerized Tcf-Lef binding sites or nonfunctional sites, respectively; TK-Luc (Promega); and GliBS containing 8×Gli binding sites upstream of the TK minimal promoter (Sasaki et al., Development, 124:1313-1322, 1997). In different experiments, the reporter constructs were co-transfected with an expression vector containing a dominant-negative form of Lef1 or the endogenous Wnt inhibitor Icat. The dominant negative Lef1 (gift from S. Pleasure) was generated by cloning the 63 amino acid N-terminal deleted form of Lef1 into the pEF5 plasmid. This construct also contains an IRES-EGFP cassette. The cDNA coding for the Icat protein was cloned into pIRES2-EGFP (BD Biosciences Clontech). Transfections were performed using the Effectene transfection reagent […] according to the user's manual. A Renilla luciferase plasmid (Promega) was included to control for transfection efficiency. Transfected cells were cultured in medium containing serum. […] Cells were harvested 24 hrs after transfection, and luciferase activity was assayed using the Dual Luciferase kit (Promega), according to the user's manual. […]

L3.6sl tumors = assay: Subcutaneous tumor treatment in nude mice; type: in vivo, CD-1 nude mice
Method: A total of 0.1 ml Hanks' balanced salt solution and matrigel (1:1) containing 2×10^6 cells was injected subcutaneously into CD-1 nude mice (Charles River Laboratories). Tumors were grown for 4 days to a minimum volume of 125 mm^3. Treatment was initiated simultaneously for all subjects. Mice were injected with vector alone (peanut oil: PBS 7:3 v/v) or with a sulindac solution (3 mg/mouse/day) daily for 5 days. Sulindac sulfone was administered orally (1.5 mg/mouse/day). At the end of the treatment period, tumors were excised from mice, weighed and photographed.
Individual or combined treatment was initiated after tumors were palpable.

Tcf4 = assay: Immunofluorescence of Tcf expression in pancreatic cancer cells; type: cell-based, human; conditions: cyclopamine for 24 hrs (FIG. 4C) or sulindac-treated
[2] = reduction in cell proliferation

CC1=C(CC(=O)O)c2cc(F)ccc2/C1=C\c1ccc([S+](C)[O-])cc1 (stereo not drawn) [sulindac]
cell growth (proliferation, apoptosis) (CFPAC-1): not affected; also recorded: only marginally affected | induced apoptosis (BxPC3; concentration dependent): two to four-fold | Sulindac Sensitivity (BxPC3; [2]): Positive | cell growth (BxPC3; vs untreated controls, FIG. 3B): strongly inhibits growth | induced apoptosis (L3.6sl; concentration dependent): two to four-fold | Sulindac Sensitivity (L3.6sl; [2]): Positive | cell growth (L3.6sl; vs untreated controls, FIG. 3B): strongly inhibits growth | induced apoptosis (Panc4.21; concentration dependent): two to four-fold | Sulindac Sensitivity (Panc4.21; [2]): Positive | cell growth (Panc4.21; vs untreated controls, FIG. 3B): strongly inhibits growth | Sulindac Sensitivity (L3.6pl): Positive | Sulindac Sensitivity (Panc2.03): Positive | Sulindac Sensitivity (Panc3.27): Positive | Sulindac Sensitivity (Panc6.03): Positive | activity of the GliBS-luc Hedgehog reporter [1]: unaffected; also recorded: had no affect | reduction in tumor volume compared to untreated samples (L3.6sl tumors; sulindac 3 mg/mouse/day injected daily for 5 days): 80% | tumor growth (L3.6sl tumors; treated for five days vs untreated controls, sulindac 3 mg/mouse/day injected, sulindac sulfone 1.5 mg/mouse/day orally): strongly reduced | Tcf4 expression (Tcf4): reduced

From patent US20090012018A1, “Inhibition of pancretic cancer cell growth” (priority 2004, published 2009)
